In patent US20240279845A1, “METHOD FOR PREPARING A LIBRARY OF PEPTIDES OR A PEPTIDE” (ECOLE POLYTECHNIQUE FEDERALE DE LAUSANNE (EPFL), priority 2021, published 2024):

What was measured:
thrombin [1] = molecular target: T1, thrombin (Homo sapiens, UniProt P00734); test: Substrate KM for protease screen, thrombin; assay type: biochemical
T1 construct: two polypeptide chains of 36 (light chain) and 259 amino acid residues (heavy chain); purchased Haematologic Technologies HCT-0020
Description: Crude macrocyclic libraries (4 mM DMSO stocks in 384-well LDV plates were transferred into 1536-well microtiter OptiPlates via ADE. Applied buffered solutions were prepared by filtration through PTFE syringe filters (0.22 μm) and assays were initiated by addition of protease (4.41 μl/well) in appropriate buffer (see list below) supplemented with bovine serum albumin (BSA; 0.1% w/v) and dispensed using a CERTUS automated liquid handler. Plates were incubated for 10 min at ambient temperature before fluorogenic substrate in appropriate buffer (4.5 μl) was added using a CERTUS automated liquid handler. Plates were centrifugated (800 g, 2 min) and fluorescence intensity was measured using a PHERAstar plate reader (excitation 384 nm, emission 440 nm) in time increments of 150 s over 15 min. Slopes of fluorescence increase (m) were calculated with Microsoft Excel (vers. 16.56). Negative controls were prepared without macrocycle. An average of 12 negative controls was used to calculate residual activities using Equation I below: […]
where [S]0 is the initial substrate concentration and KM is the Michaelis-Menten constant^12 for the enzyme and substrate.

MDM2 [2] = molecular target: T2, MDM2 (Homo sapiens, UniProt Q00987); test: MDM2 fluorescence polarization competition assay (displacement of FP53 peptide probe); assay type: binding; settings: purified macrocycles, 1.2 μM MDM2; read-out: IC50 displacement of fluorescent peptide probe from MDM2
T2 sequence (Q00987 whole entry): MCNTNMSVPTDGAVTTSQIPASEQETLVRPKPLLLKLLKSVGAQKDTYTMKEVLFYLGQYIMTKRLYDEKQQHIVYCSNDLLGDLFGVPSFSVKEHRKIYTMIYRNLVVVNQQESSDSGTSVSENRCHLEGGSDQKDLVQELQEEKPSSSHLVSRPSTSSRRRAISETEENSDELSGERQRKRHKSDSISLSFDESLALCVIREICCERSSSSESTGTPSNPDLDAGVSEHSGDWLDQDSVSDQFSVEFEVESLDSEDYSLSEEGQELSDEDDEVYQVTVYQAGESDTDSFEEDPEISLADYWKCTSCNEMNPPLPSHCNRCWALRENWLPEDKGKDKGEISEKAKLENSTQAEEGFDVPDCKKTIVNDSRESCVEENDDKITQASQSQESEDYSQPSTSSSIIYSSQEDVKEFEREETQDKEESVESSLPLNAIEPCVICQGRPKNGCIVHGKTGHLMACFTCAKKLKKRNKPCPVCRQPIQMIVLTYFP
Description: The library was screened by dispensing to the reactions in the 384-mictrowell plates the target protein MDM2 and a reporter peptide to measure binding of the macrocycles.
One fluorescence anisotropy reading was taken with a Tecan Infinite F200 Pro fluorescence plate reader (excitation at 485 nm, emission at 535 nm) at 25° C.The percentage of probe displacement was calculated using to the following formula,
Volumes of 5 μL of purified macrocycles (20 mM in DMSO) were serial diluted two-fold in 100% DMSO in a low dead-volume ECHO source plate. Using acoustic droplet transfer, 150 nl of each dilution was transferred to a 384 well low volume polystyrene plate (Nunc, 264705). […] Fluorescence anisotropy was measured as described above. The percentage of bound inhibitor was calculated using the following equation
where N is the average anisotropy of the DMSO controls, X is the anisotropy value obtained for each well, and P is the average anisotropy of the unbound probe. The ICsos were determined by plotting the percent of bound inhibitor against the logarithm of the corresponding macrocycle concentration, and the curves were fitted in GraphPad Prism 6 as described above.

MDM2 [3] = molecular target: T2, MDM2; test: Determining Kds of MDM2 binders by SPR; assay type: binding; settings: unlabeled macrocycles, single cycle kinetics
Description: FIG. 30. Binding of macrocycles to MDM2 measured by SPR. a, Single-cycle SPR sensorgrams for fluorescein-labeled macrocycles, positive control nutlin-3a (not fluorescein labeled), and negative controls (thrombin inhibitors; not fluorescein labeled). RU, response unit. b, Single-cycle SPR sensorgrams for macrocycles M6, M7, M8 and M10 (not fluorescein-labeled), performed in triplicate.
Experiments were performed using a GE Healthcare Biacore 8K instrument. MDM2 (10 μg/mL) was dissolved in 10 mM MES buffer (pH 6.0) and immobilized on three channels of a CM5 series S chip (Cytiva, 29104988) using EDC/NHS amine coupling conditions in running buffer (10 mM PBS pH 7.4, 150 mM NaCl, 3 mM KCI, and 0.005% v/v Tween-20). Typical immobilization level was 6,000 to 7,000 resonance units (RUs). The reference cell was treated the same way without MDM2. For the measurement of binding kinetics and dissociation constants, five serial dilutions (3-fold) of macrocycles plus a DMSO blank were prepared in running buffer (10 mM PBS PH 7.4, 150 mM NaCl, 3 mM KCl, and 0.005% v/v Tween-20, and 0.5% v/v DMSO) and analyzed in single cycle kinetics mode with contact and dissociation times of 120 seconds and 60 seconds, respectively.

thrombin [4] = molecular target: T1, thrombin; test: Thrombin inhibition screen of the 96-member disulfide-cyclized peptide library and Ki of purified hit (Example 2); assay type: biochemical
Description: FIG. 7. Library design, peptide recovery quantification by absorption, and thrombin inhibition of the cyclic peptide library. (a) Design of library comprising 96 different peptides and structures of unnatural amino acids used in library. (b) Scatter plot of cyclic peptide concentrations (mM in DMSO) for the 96 synthesized cyclic peptides quantified by absorption at 280 nm. […] (c) Thrombin inhibition measured at an average cyclic peptide concentration of 11 μM. The peptides are ordered according to their thrombin inhibition activity in the first screen (black dots; highest to lowest activity). Green dots indicate thrombin inhibition for the same cyclic peptides measured in a second screen using the same conditions.
Despite the relatively small number of only 96 cyclic peptides and thus small chance of finding an active compounds, we performed a screen against thrombin, an important target for developing anticoagulation therapeutics, using a compound concentration of around 10 μM. […] Biological screens are typically performed at compound concentrations of around 10 μM, which means that the 100% DMSO and 150 mM DIPEA in the around 10 mM peptide stocks get 1000-fold diluted to reach concentrations of 0.1% and 150 μM, respectively, that unlikely affect most biological assays.

MDM2 [5] = molecular target: T2, MDM2; test: Competition binding experiment of fluorescein-labeled M10 with nutlin-3a on MDM2; settings: fluorescence polarization
Description: We subsequently performed a third cycle of library synthesis and screening, where we acylated the nine most promising scaffolds of the previous screens with 15 additional carboxylic acids, which were mostly cinnamic acid derivatives with larger substituents. We subsequently identified M10, which is a macrocycle based on the original scaffold and acylated with acid 120 that displaced the fluorescent probe used, F-M8, to 84% from MDM2 at 750 nM, and more efficiently than the parent compounds, M8 and M9 (FIG. 18c). […] With the fluorescein conjugate, we also performed a competition experiment with nutlin-3a that binds to a defined hydrophobic pocked of MDM2 (B. Anil et al., Acta Crystallogr. Sect. D Biol. Crystallogr. 2013, 69, 1358-1366) and is a precursor of nutlin-based clinical candidates.

| IC50 (MDM2 [2]) | Kd (MDM2 [3]) | Compound | other results |
| --- | --- | --- | --- |
| – | – | Cc1cc(=O)oc2cc(NC(=O)[C@H](CCCNC(=N)N)NC(=O)CNC(=O)CNC(=O)OCc3ccccc3)ccc12 [Cbz-G-G-R-AMC] | Km (thrombin [1]): 305 ± 46 µM |
| ~1 µM | 0.6 ± 0.3 µM | O=C(NC[C@@H]1NC(=O)[C@H]2CCCN(C2)C(=O)CCSSCCNC(=O)[C@H](Cc2c[nH]c3ccccc23)NC1=O)c1ccc(Cl)s1 [M6] | – |
| ~1 µM | 0.55 ± 0.19 µM | O=C(NC[C@@H]1NC(=O)[C@H]2CCCN(C2)C(=O)CCSSCCNC(=O)[C@H](Cc2c[nH]c3ccccc23)NC1=O)c1ccc(Cl)cc1 [M7] | – |
| ~1 µM | 0.169 ± 0.093 µM | O=C(/C=C/c1ccccc1)NC[C@@H]1NC(=O)[C@H]2CCCN(C2)C(=O)CCSSCCNC(=O)[C@H](Cc2c[nH]c3ccccc23)NC1=O [M8] | – |
| – | – | Mpa-Tyr-II-Pro-Mea | Ki (thrombin [4]; HPLC-purified disulfide cyclized peptide): 13 ± 1 µM; reduction of thrombin activity (thrombin [4]; crude cyclic peptide, compound concentration of around 10 μM): 52% |
| – | – | nutlin-3a | competition with fluorescein conjugate of M10 for MDM2 (MDM2 [5]): did not compete |
